Read-outs that look alike come from different tables or passages of the source.
Details: amide bond, salicylaldehyde ester ligation, TFA, 2 steps

## CC(C)C[C@@H]1NC(=O)[C@H](Cc2ccccc2)NC(=O)[C@H](CO)NC(=O)[C@H](C)NC(=O)[C@H](Cc2ccccc2)NC1=O [SFLFA]
From H-Ser-Phe-Leu-Phe-Ala-OPhCHO?, 15-membered ring
  ring closure, yield after HPLC: 35%

## CC(C)C[C@@H]1NC(=O)[C@H](Cc2ccccc2)NC(=O)[C@H](C)NC(=O)[C@H](CCCCN)NC(=O)CNC(=O)[C@H](CO)NC1=O [SGKAFL]
From H-Ser-Gly-Lys-Ala-Phe-Leu-OPhCHO?, 18-membered ring
  ring closure, yield after HPLC: 39%

## CC(C)C[C@@H]1NC(=O)CNC(=O)[C@H](CO)NC(=O)CNC(=O)[C@H](C)NC(=O)[C@H](Cc2ccccc2)NC(=O)CNC(=O)[C@H](Cc2ccccc2)NC1=O [SGLFGFAG]
From H-Ser-Gly-Leu-Phe-Gly-Phe-Ala-Gly-OPhCHO?, 24-membered ring
  ring closure, yield after HPLC: 65%

## CC(C)C[C@@H]1NC(=O)CNC(=O)[C@H](CO)NC(=O)CNC(=O)[C@H](C)NC(=O)[C@H](Cc2ccccc2)NC(=O)CNC(=O)[C@H](Cc2ccc(O)cc2)NC1=O [SGLYGFAG]
From H-Ser-Gly-Leu-Tyr-Gly-Phe-Ala-Gly-OPhCHO?, 24-membered ring
  ring closure, yield after HPLC: 52%

## CC(C)C[C@@H]1NC(=O)[C@H](CO)NC(=O)[C@H](CC(C)C)NC(=O)[C@H](CO)NC1=O [SLSL]
From H-Ser-Leu-Ser-Leu-OPhCHO?, 12-membered ring
  ring closure, yield after HPLC: 20%

## C[C@@H](O)[C@@H]1NC(=O)CNC(=O)[C@H](Cc2ccccc2)NC(=O)[C@H](Cc2ccccc2)NC(=O)CNC(=O)[C@H](Cc2ccccc2)NC(=O)[C@H](Cc2ccccc2)NC1=O [TFFGFFG]
From H-Thr-Phe-Phe-Gly-Phe-Phe-Gly-OPhCHO?, 21-membered ring
  ring closure, yield after HPLC: 56%

## CC(C)C[C@@H]1NC(=O)CNC(=O)[C@H]([C@@H](C)O)NC(=O)CNC(=O)[C@H](C)NC(=O)[C@H](Cc2ccccc2)NC(=O)CNC(=O)[C@H](Cc2ccccc2)NC1=O [TGLFGFAG]
From H-Thr-Gly-Leu-Phe-Gly-Phe-Ala-Gly-OPhCHO?, 24-membered ring
  ring closure, yield after HPLC: 63%
